Test results: patent publication US5633219A, “5H-pyrrolo(3',4':5,6)(1,4)dithiin o(2,3-C)(1,2,5)thiadiazole-5,7(6H)-dione, compositions containing them and their use as antimicrobial and marine antifouling agents” (The Dow Chemical Company, priority 1996, dated 1997)
Converted amounts (≈) assume the structure as drawn. Like-named read-outs stand apart in the source and are kept apart here.

Tests used:
[1] = tested on: Klebsiella pneumoniae (Kp); experiment: Minimum inhibitory concentration, nutrient agar, Klebsiella pneumoniae; details: 48 h
Trichoderma viride (Tv) = experiment: Minimum inhibitory concentration, malt yeast agar, Trichoderma viride; assay type: cell-based, Trichoderma viride ATCC 8678; details: malt yeast agar, 30° C, 72 hours (fungi); read-out: Minimum Inhibitory Concentration, Tv
Experimental: (§1) Malt yeast agar is prepared by adding 3 g yeast extract and 45 g malt agar per liter of deionized water. The specific agar is dispensed in 30 mL aliquots into 25×200 mm test tubes, capped and autoclaved for 15 minutes at 115° C.
(§2) The inoculation with the yeast and fungi is accomplished as follows. Cultures of yeast and fungi are incubated for seven days on malt yeast agar at 30° C. These cultures are used to prepare suspensions by the following procedure. A suspension of each organism is prepared by adding 10 mL of sterile saline and 10 microliters of octylphenoxy polyethoxy ethanol to the agar slant of yeast or fungi. The sterile saline/octylphenoxy polyethoxy ethanol solution is then agitated with a sterile swab to suspend the microorganism grown on the slant. Each resulting suspension is diluted into sterile saline (1 part suspension to 9 parts sterile saline). Aliquots of these dilutions are placed in individual wells of Steer's Replicator and petri plates inoculated as previously described. The petri plates are incubated at 30° C. and read after 48 hours for yeast and 72 hours for fungi.

Escherichia coli (Ec) = experiment: Minimum inhibitory concentration, nutrient agar, Escherichia coli; details: 48 h
Candida albicans (Ca) = experiment: Minimum inhibitory concentration, malt yeast agar, Candida albicans; assay type: cell-based, Candida albicans ATCC 10231; details: malt yeast agar, 30° C, 48 hours (yeast); read-out: Minimum Inhibitory Concentration, Ca
Experimental: as §1, §2

Aspergillus niger (An) = experiment: Minimum inhibitory concentration, malt yeast agar, Aspergillus niger; assay type: cell-based, Aspergillus niger ATCC 16404; details: 30° C, 72 hours (fungi)
Experimental: as §1, §2

[2] = tested on: Pseudomonas aeruginosa (Pa); experiment: Minimum inhibitory concentration, nutrient agar, Pseudomonas aeruginosa; assay type: cell-based, Pseudomonas aeruginosa ATCC 10145; details: 30° C, 48 hours
marine organisms = experiment: Marine antifouling rating of coated test panels exposed under a marine surface; details: scale 10 (completely free of growth) to 0 (completely covered), 1.0 g compound in 9.0 g latex binder
Experimental: Test panels are prepared from clear, rigid polyvinyl chloride film that is 0.381×10^-3 m thick and has one textured surface. The test panels are 0.1524 m by 0.1524 m squares that have 0.00635 m holes punched at corners on 0.127 m centers. A 0.102 square template, with a 0.067 m diameter hole at the center, is attached to the center of the textured surface of the test panels.
A candidate marine antifoulant compound (1.0 g) is stirred into a resinous latex binder (9.0 g). A portion of the compound/binder mixture (1.5 g) is added to the center of the test panel and uniformly spread over the circular area inside the template.
Water is added dropwise as needed to properly spread the compound/binder mixture. The template prevents the compound/binder mixture from spreading beyond the uncovered area. The test panel is allowed to sit for between 10 to 30 minutes until the edge of the spread compound/binder mixture has dried. The template is then removed. The test panel is then allowed to dry for 8 to 12 hours at room temperature.
Two test panels are prepared for each candidate marine antifoulant compound. Two control test panels are also prepared by only treating with the resinous latex binder. One test panel of each candidate marine […] compound is attached over a white background to the topside of an exposure support apparatus. The second test panel is attached over a black background to the underside of the exposure support apparatus. The exposure support apparatus is placed horizontally 0.0254 m under a marine surface with the white background topside facing up. […]
After being removed from the exposure support apparatus, each test panel is inspected and rated for marine organism growth on both the treated and untreated areas of the test panel. The marine organisms present on the treated and untreated areas are noted. The presence of algae spores and bacterial slime are noted but not included in rating each test panel. The test panels are rated on a scale from 10 (representing completely free of marine organism growth) to 0 (representing completely covered with marine organism growth).

[3] = tested on: Pseudomonas aeruginosa (PRD-10); experiment: Minimum inhibitory concentration, nutrient agar, Pseudomonas aeruginosa PRD-10; details: 48 h
Bacillus subtilis (Bs) = experiment: Minimum inhibitory concentration, nutrient agar, Bacillus subtilis; details: 48 h
[4] = tested on: Staphylococcus aureus (Sa); experiment: Minimum inhibitory concentration, nutrient agar, Staphylococcus aureus; details: 48 h
[5] = tested on: Aureobasidium pullulan (Ap); experiment: Minimum inhibitory concentration, malt yeast agar, Aureobasidium pullulan; assay type: cell-based, Aureobasidium pullulan ATCC 16622; details: 30° C, 48 hours for yeast and 72 hours for fungi
Experimental: as §1, §2

[6] = tested on: Salmonella choleraesuis (Sc); experiment: Minimum inhibitory concentration, nutrient agar, Salmonella choleraesuis; assay type: cell-based, Salmonella choleraesuis ATCC 10708; details: Salmonella enterica, 30° C, 48 hours
[7] = tested on: Penicillium chrysogenum (PC); experiment: Minimum inhibitory concentration, malt yeast agar, Penicillium chrysogenum; assay type: cell-based, Penicillium chrysogenum ATCC 9480; details: malt yeast agar, 30° C, 72 hours (fungi); read-out: Minimum Inhibitory Concentration, Pc
Experimental: as §1, §2

[8] = tested on: Enterobacter aerogenes (Ea); experiment: Minimum inhibitory concentration, nutrient agar, Enterobacter aerogenes; details: Klebsiella aerogenes, 48 h
[9] = tested on: Saccharomyces cerevisiae (Sc); experiment: Minimum inhibitory concentration, malt yeast agar, Saccharomyces cerevisiae; assay type: cell-based, Saccharomyces cerevisiae ATCC 4105; details: malt yeast agar, 30° C, 48 hours (yeast), read-out: Minimum Inhibitory Concentration, Sc
Experimental: as §1, §2

Proteus vulgaris (Pv) = experiment: Minimum inhibitory concentration, nutrient agar, Proteus vulgaris; details: 48 h
Fusarium oxysporum (Of) = experiment: Minimum inhibitory concentration, malt yeast agar, Fusarium oxysporum; assay type: cell-based, Fusarium oxysporum ATCC 48112; details: 30° C, 72 hours (fungi), read-out: Minimum Inhibitory Concentration, Fo
Experimental: as §1, §2

SMILES: CCCn1c(=O)c2sc3nsnc3sc=2c1=O [IV, 6-n-Propyl-5H-Pyrrolo(3',4':5,6)(1,4)dithiino-(2,3-C)(1,2,5)thiadiazole-5,7(6H) -dione]
- MIC ([1]; pH 6.8, read-out: Minimum inhibitory Concentration, Kp): > 500 µg/mL
- MIC ([1]; pH 8.2, read-out: Minimum inhibitory Concentration, Kp): > 500 µg/mL
- MIC (Trichoderma viride (Tv)): < 1 µg/mL
- MIC (Escherichia coli (Ec); pH 6.8, read-out: Minimum inhibitory Concentration, Ec): > 500 µg/mL
- MIC (Escherichia coli (Ec); pH 8.2, read-out: Minimum inhibitory Concentration, Ec): > 500 µg/mL
- MIC (Candida albicans (Ca)): < 1 µg/mL
- MIC (Aspergillus niger (An)): < 1 µg/mL
- MIC ([2]; pH 6.8, nutrient agar): > 500 µg/mL
- MIC ([2]; pH 8.2, nutrient agar): > 500 µg/mL
- Marine Antifouling Rating, Bottom Panel (marine organisms; 6 weeks): 9
- Marine Antifouling Rating, Top Panel (marine organisms; 6 weeks): 9
- Marine Antifouling Rating, Bottom Panel (marine organisms; 10 weeks): 7
- Marine Antifouling Rating, Top Panel (marine organisms; 10 weeks): 7
- Marine Antifouling Rating, Bottom Panel (marine organisms; 16 weeks): 7
- Marine Antifouling Rating, Top Panel (marine organisms; 16 weeks): 7
- MIC ([3]; pH 6.8, read-out: Minimum inhibitory Concentration, PRD): > 500 µg/mL
- MIC ([3]; pH 8.2, read-out: Minimum inhibitory Concentration, PRD): > 500 µg/mL
- MIC (Bacillus subtilis (Bs); pH 6.8, read-out: Minimum inhibitory Concentration, Bs): < 10 µg/mL
- MIC (Bacillus subtilis (Bs); pH 8.2, read-out: Minimum inhibitory Concentration, Bs): 250 µg/mL (≈ 876 µM)
- MIC ([4]; pH 6.8, read-out: Minimum inhibitory Concentration, Sa): 50 µg/mL (≈ 175 µM)
- MIC ([4]; pH 8.2, read-out: Minimum inhibitory Concentration, Sa): 50 µg/mL (≈ 175 µM)
- MIC [5]: < 1 µg/mL
- MIC ([6]; pH 6.8, nutrient agar): 500 µg/mL (≈ 1750 µM)
- MIC ([6]; pH 8.2, nutrient agar): > 500 µg/mL
- MIC [7]: < 1 µg/mL
- MIC ([8]; pH 6.8, read-out: Minimum inhibitory Concentration, Ea): > 500 µg/mL
- MIC ([8]; pH 8.2, read-out: Minimum inhibitory Concentration, Ea): > 500 µg/mL
- MIC [9]: < 1 µg/mL
- MIC (Proteus vulgaris (Pv); pH 6.8, read-out: Minimum inhibitory Concentration, Pv): 250 µg/mL (≈ 876 µM)
- MIC (Proteus vulgaris (Pv); pH 8.2, read-out: Minimum inhibitory Concentration, Pv): > 500 µg/mL
- MIC (Fusarium oxysporum (Of)): < 1 µg/mL
